Measurements published in patent US10294202B2, “Pyrrolidinones as herbicides” (FMC Corporation, priority 2013, dated 2019).

System: galium
Test: Test A postemergence herbicide test
Assay type: in vivo, Galium aparine
How it was run: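 Plants at the one- to two-leaf stage, 2–10 cm tall, grown in loam/sand pots, received postemergence sprays of the test chemicals. After about 10 days in the greenhouse, injury was scored visually against untreated controls on a 0–100 scale (0 none, 100 complete control).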

[1] = 125 g ai/ha, 0 to 100 scale, 0 is no effect, 100 is complete control
[2] = 500 g ai/ha, 0 to 100 scale (0 no effect, 100 complete control)
[3] = 125 g ai/ha, visual rating on 0 to 100 scale (0 no effect, 100 complete control), approx. 10 days

## O=C1NCC(c2ccc(F)cc2)C1C(=O)Nc1cccc(F)c1F (racemic) [Compound 119]
125 g ai/ha, 0 to 100 scale, 0 no effect, 100 complete control
  Plant response rating, Galium: 30
500 g ai/ha
  Galium plant response rating (0 to 100 scale, 0 is no effect, 100 is complete control): 50

## O=C1NCC(c2cccc(C(F)(F)F)c2)C1C(=O)Nc1ccc(F)cc1F (racemic) [Compound 207]
[1]
  Plant response rating, Galium: 0
500 g ai/ha
  Galium plant response rating (0 to 100 scale, 0 is no effect, 100 is complete control): 50

## O=C1NCC(c2cccc(C(F)F)c2)C1C(=O)Nc1cccc(F)c1F (racemic) [Compound 211]
[1]
  Plant response rating, Galium: 60
500 g ai/ha
  Galium plant response rating (0 to 100 scale, 0 is no effect, 100 is complete control): 70

## O=C1NCC(c2cccc(Cl)c2)C1C(=O)Nc1cccc(F)c1F (racemic) [Compound 275]
[1]
  Plant response rating, Galium: 60
[2]
  Plant response rating, Galium: 70

## O=C1NCC(c2cc(F)cc(F)c2)C1C(=O)Nc1ccc(F)cc1F (racemic) [Compound 278]
[1]
  Plant response rating, Galium: 40
[2]
  Plant response rating, Galium: 50

## O=C1NCC(c2cc(F)cc(F)c2)C1C(=O)Nc1cccc(F)c1F (racemic) [Compound 279]
[1]
  Plant response rating, Galium: 40
[2]
  Plant response rating, Galium: 50

## O=C1NCC(c2cccc(OC(F)F)c2)C1C(=O)Nc1ccccc1F (centres unmarked) [Compound 223]
[1]
  Plant response rating, Galium: 50
500 g ai/ha
  Galium plant response rating (0 to 100 scale, 0 is no effect, 100 is complete control): 60

## O=C1NCC(c2ccc(C(F)(F)F)cc2)C1C(=O)Nc1ccccc1Cl (centres unmarked) [Compound 233]
[1]
  Plant response rating, Galium: 20
500 g ai/ha
  Galium plant response rating (0 to 100 scale, 0 is no effect, 100 is complete control): 50

## CN1CC(c2ccc(F)cc2)C(C(=O)Nc2cccc(F)c2F)C1=O (centres unmarked) [Compound 271]
[1]
  Plant response rating, Galium: 40
[2]
  Plant response rating, Galium: 70

## O=C(Nc1ccccc1F)C1C(=S)NCC1c1cccc(C(F)(F)F)c1 (centres unmarked) [Compound 274]
1000 g ai/ha, 0 to 100 scale (0 no effect, 100 complete control)
  Plant response rating, Galium: 0

## CN1CC(c2cccc(C(F)(F)F)c2)C(C(=O)Nc2ccccc2F)C1=O (centres unmarked) [Compound 277]
[1]
  Plant response rating, Galium: 70
[2]
  Plant response rating, Galium: 70

## CN1CC(c2ccc(F)c(F)c2)C(C(=O)Nc2ccccc2F)C1=O (centres unmarked) [Compound 302]
[3]
  Plant response rating, Galium: 60
[2]
  Plant response rating, Galium: 60

## CN1CC(c2ccc(C(F)(F)F)cc2)C(C(=O)Nc2ccccc2F)C1=O (centres unmarked) [Compound 304]
[3]
  Plant response rating, Galium: 20
[2]
  Plant response rating, Galium: 60

## O=C1NCC(c2cccc(Br)c2)C1C(=O)Nc1ccccc1F (centres unmarked) [Compound 307]
[3]
  Plant response rating, Galium: 0
[2]
  Plant response rating, Galium: 0

## O=C1NCC(c2cccc(Br)c2)C1C(=O)Nc1cccc(F)c1F (centres unmarked) [Compound 309]
[3]
  Plant response rating, Galium: 60
[2]
  Plant response rating, Galium: 70

## O=C1NCC(c2cccc(C(F)(F)F)c2)C1C(=O)Nc1ccccc1Cl (centres unmarked) [Compound 312]
[3]
  Plant response rating, Galium: 30
[2]
  Plant response rating, Galium: 50

## O=C1NCC(c2cccc(C(F)(F)F)c2)C1C(=O)Nc1ccc(F)c(F)c1F (centres unmarked) [Compound 315]
[3]
  Plant response rating, Galium: 40
[2]
  Plant response rating, Galium: 50

## O=C1NCC(c2cccc(C(F)(F)F)c2)C1C(=O)Nc1cccc(Cl)c1F (centres unmarked) [Compound 316]
[3]
  Plant response rating, Galium: 20
[2]
  Plant response rating, Galium: 40

## Cc1cccc(NC(=O)C2C(=O)NCC2c2cccc(C(F)(F)F)c2)c1 (centres unmarked) [Compound 317]
[3]
  Plant response rating, Galium: 0
[2]
  Plant response rating, Galium: 0

## O=C1NCC(c2cccc(OC(F)F)c2)C1C(=O)Nc1cccc(F)c1F (centres unmarked) [Compound 324]
[3]
  Plant response rating, Galium: 40
[2]
  Plant response rating, Galium: 60

## O=C1NCC(c2cccc(OC(F)F)c2)C1C(=O)Nc1ccc(F)c(F)c1F (centres unmarked) [Compound 325]
[3]
  Plant response rating, Galium: 50
[2]
  Plant response rating, Galium: 60
